ChEMBL document CHEMBL1201862, “PubChem BioAssay data set” (2004)
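Assay format: 96-well plates, 48-hour exposure. GI50: concentration for 50% inhibition of growth.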 Active and inactive are the calls of the source. Rule as the data show it: active = GI50 up to about 1.1 µM and inactive = higher.

Columns and labels:
Test in all cases: NCI tumour cell line growth inhibition, 48 h
[1] = test system: M14
[2] = test system: SNB-19
[3] = test system: NCI-H460
[4] = test system: SF-539
[5] = test system: COLO 205
[6] = test system: SN12C
[7] = test system: NCI-H522
[8] = test system: SNB-75
[9] = test system: OVCAR-4
[10] = test system: SW-620
[11] = test system: MDA-N
[12] = test system: ACHN
[13] = test system: MDA-MB-231
[14] = test system: SF-268
[15] = test system: HCT-15
[16] = test system: DU-145
[17] = test system: SK-MEL-5
[18] = test system: MDA-MB-435
[19] = test system: EKVX
[20] = test system: MOLT-4
[21] = test system: SF-295
[22] = test system: NCI-H23
[23] = test system: A498
[24] = test system: LOX IMVI
[25] = test system: HCC 2998
[26] = test system: PC-3
[27] = test system: U-251
[28] = test system: CCRF-CEM
[29] = test system: SK-OV-3
[30] = test system: CAKI-1
[31] = test system: HL-60
[32] = test system: OVCAR-5
[33] = test system: UACC-62
[34] = test system: MCF7
[35] = test system: IGROV-1
[36] = test system: K562
[37] = test system: HOP-62
[38] = test system: RXF 393
[39] = test system: HCT-116
[40] = test system: OVCAR-8
[41] = test system: 786-0
[42] = test system: A549
[43] = test system: SK-MEL-2
[44] = test system: Hs-578T
[45] = test system: RPMI-8226
[46] = test system: TK-10
[47] = test system: HT-29
[48] = test system: NCI-H226
[49] = test system: UACC-257
[50] = test system: OVCAR-3
[51] = test system: Malme-3M
[52] = test system: BT-549
[53] = test system: SK-MEL-28
[54] = test system: HOP-92
[55] = test system: KM12
[56] = test system: SR

In the case of `Nc1nc(Cl)cc(NCC2(CO)CC(CCCCc3ccccc3)C2)n1` (stereo unspecified), the GI50 [1] is reported as 67.6 µM (inactive), the GI50 [2] is reported as > 100 µM (inactive) and the GI50 [3] is reported as 40.8 µM (inactive). The GI50 [4] was > 100 µM (inactive), the GI50 [5] was 27.9 µM (inactive) and the GI50 [6] was > 100 µM (inactive). For the same molecule, the GI50 [7] was 66.7 µM (inactive), the GI50 [8] was 81.3 µM (inactive) and the GI50 [9] was > 100 µM (inactive). The GI50 [10] was 78.7 µM (inactive), the GI50 [11] was 89.1 µM (inactive) and the GI50 [12] was > 100 µM (inactive). The GI50 [13] was 30.6 µM (inactive), the GI50 [14] was > 100 µM (inactive) and the GI50 [15] was 34.8 µM. The GI50 [16] was > 100 µM (inactive), the GI50 [17] was 3.86 µM (inactive) and the GI50 [18] was 42.9 µM (inactive). For the same molecule, the GI50 [19] was > 100 µM (inactive), the GI50 [20] was 3.36 µM (inactive) and the GI50 [21] was 18.2 µM (inactive). The GI50 [22] was 21.8 µM (inactive), the GI50 [23] was 18.1 µM (inactive) and the GI50 [24] was 5.73 µM (inactive). The GI50 [25] was 37.7 µM (inactive), the GI50 [26] was 46.1 µM (inactive) and the GI50 [27] was > 100 µM (inactive). For the same molecule, the GI50 [28] was 0.0875 µM (active), the GI50 [29] was > 100 µM (inactive) and the GI50 [30] was 82.8 µM (inactive). The GI50 [31] was 6.55 µM (inactive), the GI50 [32] was > 100 µM (inactive) and the GI50 [33] was > 100 µM (inactive). The GI50 [34] was 7.55 µM (inactive), the GI50 [35] was > 100 µM (inactive) and the GI50 [36] was 2.23 µM (inactive). For the same molecule, the GI50 [37] was 99.8 µM (inactive), the GI50 [38] was 34.6 µM (inactive) and the GI50 [39] was 29 µM (inactive). The GI50 [40] was 27.2 µM (inactive), the GI50 [41] was 42.3 µM (inactive) and the GI50 [42] was 16.1 µM (inactive). For the same molecule, the GI50 [43] was > 100 µM (inactive), the GI50 [44] was 70.6 µM (inactive) and the GI50 [45] was 10.9 µM (inactive). The GI50 [46] was > 100 µM (inactive), the GI50 [47] was 13.7 µM (inactive) and the GI50 [48] was > 100 µM (inactive). For the same molecule, the GI50 [49] was 61.9 µM (inactive), the GI50 [50] was > 100 µM (inactive) and the GI50 [51] was 16.3 µM (inactive). For the same molecule, the GI50 [52] was > 100 µM (inactive), the GI50 [53] was > 100 µM (inactive) and the GI50 [54] was 96.4 µM (inactive). The GI50 [55] was 65 µM (inactive) and the GI50 [56] was 19.2 µM (inactive).
